The results in this text go back to US10167279B2 (NOVARTIS AG, priority 2014, dated 2019).

Structures are written as SMILES.

This assay deals with C-Raf FL (Homo sapiens (Human), UniProt P04049, Y340E/Y341E). The assay can be described thus: In vitro Raf activity determination (Alpha Screen, phospho-MEK), C-Raf FL (full length, Y340E/Y341E). It is filed as biochemical. Particulars: ATP 1 μM; 60 min pre-incubation; 1 hour reaction; column head does not say FL or TR. The text has this: The activity of a compound according to the present invention can be assessed by well-known in vitro & in vivo methods. Raf inhibition data provided herein was obtained using the following procedures.
C-Raf FL, sequence (P04049 whole entry Y340E/Y341E): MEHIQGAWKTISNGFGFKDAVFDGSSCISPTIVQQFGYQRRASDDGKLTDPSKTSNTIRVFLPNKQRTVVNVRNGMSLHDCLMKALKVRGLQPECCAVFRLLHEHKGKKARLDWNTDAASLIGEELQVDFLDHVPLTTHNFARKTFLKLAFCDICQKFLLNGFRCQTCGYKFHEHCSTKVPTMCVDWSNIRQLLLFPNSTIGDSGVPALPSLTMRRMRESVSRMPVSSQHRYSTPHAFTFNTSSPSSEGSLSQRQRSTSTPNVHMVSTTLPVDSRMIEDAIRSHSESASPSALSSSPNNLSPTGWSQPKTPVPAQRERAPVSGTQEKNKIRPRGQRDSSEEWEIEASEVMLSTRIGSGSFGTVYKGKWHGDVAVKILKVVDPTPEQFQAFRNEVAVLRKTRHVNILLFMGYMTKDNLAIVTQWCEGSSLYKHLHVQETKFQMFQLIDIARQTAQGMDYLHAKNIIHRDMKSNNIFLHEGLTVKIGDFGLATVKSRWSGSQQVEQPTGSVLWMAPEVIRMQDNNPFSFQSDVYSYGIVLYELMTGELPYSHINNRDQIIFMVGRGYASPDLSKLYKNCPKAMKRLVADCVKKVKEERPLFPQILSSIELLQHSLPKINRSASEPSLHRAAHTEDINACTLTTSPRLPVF
C-Raf FL, sequence (P63104 whole entry partner): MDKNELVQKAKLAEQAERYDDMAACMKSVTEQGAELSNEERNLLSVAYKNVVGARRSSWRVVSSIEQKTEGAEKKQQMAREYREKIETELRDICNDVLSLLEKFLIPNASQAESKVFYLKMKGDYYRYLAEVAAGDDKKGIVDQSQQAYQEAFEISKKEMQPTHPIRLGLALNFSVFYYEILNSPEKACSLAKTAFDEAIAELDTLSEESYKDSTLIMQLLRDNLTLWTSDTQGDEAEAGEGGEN
Sf9 cells co-expressing both proteins were lysed and subjected to immobilized nickel chromatography and eluted with Imidazole. A second column (StrepII binding column) was used and eluted with desthiobiotin. Protein Tags were removed using Prescission enzyme and the protein was further purified using a flowthrough step to remove tags.
C-Raf TR refers to a truncated C-Raf protein, a Δ1-324 deletion mutant. C-Raf FL refers to the full-length C-Raf protein.
Full length MEK1 with an inactivating K97R ATP binding site mutation is utilized as a RAF substrate. The MEK1 cDNA was subcloned with an N-terminal (his)6 tag into a vector for E. Coli expression. The MEK1 substrate was purified from E. Coli lysate by nickel affinity chromatography followed by anion exchange. The final MEK1 preparation was biotinylated (Pierce EZ-Link Sulfo-NHS-LC-Biotin) and concentrated.
Assay protocol: Raf and biotinylated Mek (kinase dead) were combined at 2× final concentrations in assay buffer (50 mM Tris, pH 7.5, 15 mM MgCl2, 0.01% BSA and 1 mM DTT) and dispensed […] per well in assay plates (Greiner white 384 well assay plates #781207) containing […] of 40× of a Raf kinase inhibitor test compound diluted in 100% DMSO. The plate was incubated for 60 minutes at room temperature. […] The reactions were stopped and the phosphorylated product was measured using a rabbit anti-p-MEK (Cell Signaling, #9121) antibody and the Alpha Screen IgG (ProteinA) detection Kit (PerkinElmer #6760617R), by the addition of […] to the well of a mixture of the antibody (1:2000 dilution) and detection beads (1:2000 dilution of both beads) in Stop/bead buffer (25 mM EDTA, 50 mM Tris, pH 7.5, 0.01% Tween20). The additions were carried out under dark conditions to protect the detection beads from light. A lid was placed on top of the plate and incubated for 1 hour at room temperature, after which the luminescence was read on a PerkinElmer Envision instrument. The concentration of each compound for 50% inhibition (IC50) was calculated by non-linear regression using XL Fit data analysis software.
With `Cc1ncc(NC(=O)c2cccc(C(F)(F)F)c2)cc1-c1cc(C2(O)COC2)cc(C2(F)COC2)c1` [Example 139, N-(5-(3-(3-fluorooxetan-3-yl)-5-(3-hydroxyoxetan-3-yl)phenyl)-6-methylpyridin-3-yl)-3-(trifluoromethyl)benzamide], the IC50 worked out at 1.18 nM.

Consider `Cc1ccc(NC(=O)c2cc(C(F)(F)F)cn(C)c2=O)cc1-c1cc(OCCO)nc(C2CCOCC2)c1` [Example 253, N-(3-(2-(2-hydroxyethoxy)-6-(terahydro-2H-pyran-4-yl)pyridin-4-yl)-4-methylphenyl)-1-methyl-2-oxo-5-(trifluoromethyl)-1,2-dihydropyridine-3-carboxamide], for which the IC50 stood at 0.1 nM.

On to `Cc1ccc(NC(=O)c2cc(C(F)(F)F)c(Cl)cn2)cc1-c1cc(OC[C@H](O)CO)nc(C2CCOCC2)c1` [Example 282, (R)-5-chloro-N-(3-(2-(2,3-dihydroxypropoxy)-6-(tetrahydro-2H-pyran-4-yl)pyridin-4-yl)-4-methylphenyl)-4-(trifluoromethyl) picolinamide], for which half-maximal inhibition (IC50) was put at 0.3 nM.

Regarding `CCOc1ncc(-c2cc(NC(=O)c3cccc(C(F)(F)F)c3)cnc2C)cc1C1(CF)CCOC1` (centres unmarked) [Example 167, N-(6′-ethoxy-5′-(3-(fluoromethyl)tetrahydrofuran-3-yl)-2-methyl-[3,3′-bipyridin]-5-yl)-3-(trifluoromethyl) benzamide], half-maximal inhibition (IC50) was put at 1 nM.

The compound `Cc1ccc(NC(=O)c2ccnc(C(F)(F)F)c2)cc1-c1cc(C2CCOCC2)c(OC2CCOCC2)nn1` [Example 313, N-(4-methyl-3-(5-tetrahydro-2H-pyran-4-yl-6-((tetrahydro-2H-pyran-4-yl)oxy)pyridazin-3-yl)phenyl)-2-(trifluoromethyl)isonicotinamide] had an IC50 of 0.07 nM.

As to `Cc1ncc(NC(=O)c2cccc(C(F)(F)F)c2)cc1-c1cc(C2(C)COC2)c(OC2CCOCC2)nn1` [Example 11], the IC50 amounted to 0.6 nM.

In the case of `Cc1ccc(NC(=O)c2ccnc(Cl)c2)cc1-c1cc(OC[C@H](O)CO)nc(C2CCOCC2)c1` [Example 280, (R)-2-chloro-N-(3-(2-(2,3-dihydroxypropoxy)-6-(tetrahydro-2H-pyran-4-yl)pyridin-4-yl)-4-methylphenyl) isonicotinamide], half-maximal inhibition (IC50) was put at 0.07 nM. Compared with the last compound, the IC50 is about 8.6-fold lower.

On to `COC1(c2cc(-c3cc(NC(=O)c4ccnc(C(C)(F)F)c4)ccc3C)cnc2OCCO)COC1` [Example 60, 2-(1,1-difluoroethyl)-N-(3-(6-(2-hydroxyethoxy)-5-(3-methoxyoxetan-3-yl)pyridin-3-yl)-4-methylphenyl)isonicotin-amide], for which half-maximal inhibition (IC50) required 0.203 nM.

With `Cc1ccc(NC(=O)c2cccc(C(F)(F)F)c2)cc1-c1cccc(C2COC2)c1` [Example 2, N-(6-methyl-3′-(oxetan-3-yl)-[1,1′-biphenyl]-3-yl)-3-(trifluoromethyl)benzamide], the IC50 stood at 0.7 nM. This IC50 lies about 3.4-fold higher than the previous one.

In turn, `Cc1ncc(NC(=O)c2ccc(CN)c(C(F)(F)F)c2)cc1-c1cc(C2COC2)c2nccn2n1` [Example 10, 4-(aminomethyl)-N-(6-methyl-5-(8-(oxetan-3-yl)imidazo[1,2-b]pyridazin-6-yl)pyridin-3-yl)-3-(trifluoromethyl)benzamide] gave an IC50 of 2 nM.

As for `Cc1ccc(NC(=O)c2cccc(C(F)(F)F)c2)cc1-c1cc(C2CCOCC2)nc(N(CCO)CCO)c1` [Example 178], the midpoint of inhibition, the IC50, lay at 0.136 nM.

On to `Cc1ccc(NC(=O)c2cccc(C(F)(F)F)c2)cc1-c1cc(NCCO)nc(C2(O)COC2)c1` [Example 300, N-(3-(2-((2-hydroxyethyl)amino)-6-(3-hydroxyoxetan-3-yl)pyridin-4-yl)-4-methylphenyl)-3-(trifluoromethyl) benzamide], for which half-maximal inhibition (IC50) required 0.1 nM.

For `CCOc1nnc(-c2cc(NC(=O)c3cc(C(F)(F)F)ncn3)ccc2C)cc1C1CCOCC1` [Example 232], the 50% inhibitory concentration (IC50) came out at 0.03 nM.

Compound `Cc1ccc(NC(=O)c2cc(C(F)(F)F)cnn2)cc1-c1cc(OCCO)nc(C2CCOCC2)c1` [Example 258, N-(3-(2-(2-hydroxyethoxy)-6-(tetrahydro-2H-pyran-4-yl)pyridin-4-yl)-4-methylphenyl)-5-(trifluoromethyl) pyridazine-3-carboxamide] showed a half-maximal inhibitory concentration (IC50) of 0.02 nM.

`CCOc1ncc(-c2cc(NC(=O)c3cnnc(C(C)(C)C#N)c3)cnc2C)cc1C1CCOCC1` [Example 161] came in with an IC50 of 2 nM.

For the compound `Cc1ccc(NC(=O)c2ccnc(C(F)(F)F)c2)cc1-c1cc(C2CCOCC2)c(NC[C@@H](C)O)nn1` [Example 312, (R)-N-(3-(6-((2-hydroxypropyl)amino)-5-(tetrahydro-2H-pyran-4-yl)pyridazin-3-yl)-4-methylphenyl)-2-(trifluoromethyl) isonicotinamide], the IC50 turned out to be 0.1 nM.

`Cc1ccc(NC(=O)c2ccnc(C(F)(F)F)c2)cc1-c1cc(C2CCOCC2)nc(N(CCO)CCO)c1` [Example 176] showed an IC50 of 0.684 nM.

Compound `COc1ncc(-c2cc(C(=O)Nc3cccc(C(F)F)c3)ccc2C)cc1C1(O)COC1` [Example 18, N-(3-(difluoromethyl)phenyl)-3-(5-(3-hydroxyoxetan-3-yl)-6-methoxypyridin-3-yl)-4-methylbenzamide] had an IC50 of 0.6 nM.

The compound `Cc1ccc(NC(=O)c2cc(C(F)(F)F)ccn2)cc1-c1cc(OCCO)nc(C2(CO)CCOCC2)c1` [Example 219] had a 50% inhibitory concentration (IC50) of 0.5 nM.

`Cc1ccc(NC(=O)c2ccnc(C(C)(F)F)c2)cc1-c1cc2c(c(C3CCOCC3)c1)NC(=O)C(C)(CO)O2` (centres unmarked) [Example 191, 2-(1,1-difluoroethyl)-N-(3-(2-(hydroxymethyl)-2-methyl-3-oxo-5-(tetrahydro-2H-pyran-4-yl)-3,4-dihydro-2H-benzo [b][1,4]oxazin-7-yl)-4-methylphenyl) isonicotinamide]: it took 0.1 nM to reach half-maximal inhibition (IC50).

On to `CCOc1nnc(-c2cc(NC(=O)c3cncc(C(F)(F)F)c3)ccc2C)cc1C1CCOCC1` [Example 231, N-(3-(6-ethoxy-5-(tetrahydro-2H-pyran-4-yl)pyridazin-3-yl)-4-methylphenyl)-5-(trifluoromethyl) nicotinamide], for which the half-maximal inhibitory concentration (IC50) came to 0.2 nM. Compared with the last compound, the IC50 is about 2-fold higher.

Turning to `Cc1ccc(NC(=O)c2cc(C(F)(F)F)ncn2)cc1-c1cc(OCCO)nc(C2CCOCC2)c1` [Example 260, N-(3-(2-(2-hydroxyethoxy)-6-(tetrahydro-2H-pyran-4-yl)pyridin-4-yl)-4-methylphenyl)-6-(trifluoromethyl) pyrimidine-4-carboxamide], it took 0.08 nM to reach half-maximal inhibition (IC50).

Compound `Cc1ccc(NC(=O)c2ccnc(C(C)(F)F)c2)cc1-c1c[nH]c(=O)c(C2(O)COC2)c1` [Example 13, 2-(1,1-difluoroethyl)-N-(3-(5-(3-hydroxyoxetan-3-yl)-6-oxo-1,6-dihydropyridin-3-yl)-4-methylphenyl)isonicotinamide] displayed an IC50 of 1 nM.

`Cc1ccc(NC(=O)c2ccnc(C3(C(F)(F)F)CC3)c2)cc1-c1cc(OCCO)nc(C2CCOCC2)c1` [Example 259, N-(3-(2-(2-hydroxyethoxy)-6-(tetrahydro-2H-pyran-4-yl)pyridin-4-yl)-4-methylphenyl)-2-(1-(trifluoromethyl)cyclopropyl) isonicotinamide] showed a half-maximal inhibitory concentration (IC50) of 0.3 nM.

Take `Cc1ccc(NC(=O)c2cncc(C(F)(F)F)c2)cc1-c1cc(OCCO)nc(C2CCOCC2)c1` [Example 265, N-(3-(2-(2-hydroxyethoxy)-6-(tetrahydro-2H-pyran-4-yl)pyridin-4-yl)-4-methylphenyl)-5-(trifluoromethyl) nicotinamide]: the IC50 came out at 0.1 nM. Compared with the last compound, the IC50 is about 3-fold lower.

`Cc1ccc(NC(=O)c2ccnc(C(C)(C)C#N)c2)cc1-c1cc(C2(O)COC2)cc(C2(F)COC2)c1` [Example 138, 2-(2-cyanopropan-2-yl)-N-(3′-(3-fluorooxetan-3-yl)-5′-(3-hydroxyoxetan-3-yl)-6-methyl-[1,1′-biphenyl]-3-yl)isonicotinamide] returned an IC50 of 2.19 nM.

In turn, `Cc1ccc(NC(=O)c2ccnc(C(C)(F)F)c2)cc1-c1cc(OCCO)nc(C2CCOCC2O)c1` (centres unmarked) [Example 243, 2-(1,1-difluoroethyl)-N-(3-(2-(2-hydroxyethoxy)-6-(3-hydroxytetrahydro-2H-pyran-4-yl)pyridin-4-yl)-4-methylphenyl) isonicotinamide] displayed an IC50 of 1 nM. Against the preceding compound, the IC50 is about 2.2-fold lower.

As to `Cc1ccc(NC(=O)c2ccnc(C(C)(C)C#N)c2)cc1-c1cc(NCCO)nc(C2CCOCC2)c1` [Example 175, 2-(2-cyanopropan-2-yl)-N-(3-(2-((2-hydroxyethyl)amino)-6-(tetrahydro-2H-pyran-4-yl)pyridin-4-yl)-4-methylphenyl) isonicotinamide], 0.83 nM corresponded to half-maximal inhibition (IC50). The IC50 values of the last two compounds are within 1.5-fold of each other.

`Cc1ncc(NC(=O)c2cccc(C(F)(F)F)c2)cc1-c1cc(NCCO)nc(C2CCOCC2)c1` [Example 180, N-(2′-((2-hydroxyethyl)amino)-2-methyl-6′-(tetrahydro-2H-pyran-4-yl)-[3,4′-bipyridin]-5-yl)-3-(trifluoromethyl) benzamide] registered an IC50 of 0.297 nM. This IC50 is about 2.8-fold lower than that of the compound before.
